The structures appear in SMILES notation.

One experiment addresses T1, Thermolysin (Bacillus thermoproteolyticus, UniProt P00800).
T1 sequence (P00800 whole entry): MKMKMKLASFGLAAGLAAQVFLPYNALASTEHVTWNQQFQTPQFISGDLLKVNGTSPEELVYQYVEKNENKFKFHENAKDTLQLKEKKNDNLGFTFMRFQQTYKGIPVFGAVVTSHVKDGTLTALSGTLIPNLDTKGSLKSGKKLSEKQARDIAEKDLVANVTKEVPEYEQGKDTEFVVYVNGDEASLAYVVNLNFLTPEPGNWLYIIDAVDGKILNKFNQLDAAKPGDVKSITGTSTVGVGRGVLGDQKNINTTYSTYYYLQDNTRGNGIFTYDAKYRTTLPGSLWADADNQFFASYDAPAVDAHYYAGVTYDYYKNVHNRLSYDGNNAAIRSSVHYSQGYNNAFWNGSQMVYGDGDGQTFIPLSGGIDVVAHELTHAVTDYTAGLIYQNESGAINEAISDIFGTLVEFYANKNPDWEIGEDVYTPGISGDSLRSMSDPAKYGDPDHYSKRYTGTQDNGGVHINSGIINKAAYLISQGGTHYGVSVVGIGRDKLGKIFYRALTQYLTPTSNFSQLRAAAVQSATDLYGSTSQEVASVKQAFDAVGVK
As to the kind of experiment: Inhibition of metallopeptidase thermolysin.

For a further experiment, the target named is T2, Renin (Homo sapiens, UniProt P00797).
T2 sequence (P00797 whole entry): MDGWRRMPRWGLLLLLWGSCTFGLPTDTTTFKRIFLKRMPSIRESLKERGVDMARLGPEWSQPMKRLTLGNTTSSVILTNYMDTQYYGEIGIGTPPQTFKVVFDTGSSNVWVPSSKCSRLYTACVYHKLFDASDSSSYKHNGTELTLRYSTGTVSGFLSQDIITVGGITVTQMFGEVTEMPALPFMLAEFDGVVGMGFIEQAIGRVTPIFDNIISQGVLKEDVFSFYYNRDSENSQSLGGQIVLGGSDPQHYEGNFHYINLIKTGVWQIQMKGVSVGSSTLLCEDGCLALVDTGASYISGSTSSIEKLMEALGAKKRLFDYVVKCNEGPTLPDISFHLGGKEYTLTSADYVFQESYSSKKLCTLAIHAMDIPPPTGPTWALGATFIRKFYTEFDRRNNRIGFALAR
As to the kind of experiment: Inhibition of human renin.

In experiment [1] the target is T3, Cholecystokinin receptor type A (Homo sapiens, UniProt P32238).
T3 sequence (P32238 whole entry): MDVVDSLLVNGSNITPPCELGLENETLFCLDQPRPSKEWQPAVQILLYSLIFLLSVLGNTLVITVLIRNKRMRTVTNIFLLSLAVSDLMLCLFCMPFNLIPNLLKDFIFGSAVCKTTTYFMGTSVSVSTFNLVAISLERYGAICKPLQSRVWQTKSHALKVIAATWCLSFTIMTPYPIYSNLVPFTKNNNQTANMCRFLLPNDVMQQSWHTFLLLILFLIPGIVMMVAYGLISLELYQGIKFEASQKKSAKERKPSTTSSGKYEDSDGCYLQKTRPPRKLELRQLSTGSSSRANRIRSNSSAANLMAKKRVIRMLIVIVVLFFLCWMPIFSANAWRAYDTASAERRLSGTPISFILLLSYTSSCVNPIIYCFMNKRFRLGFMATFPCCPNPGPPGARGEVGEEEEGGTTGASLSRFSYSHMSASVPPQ
As to the kind of experiment: Antagonistic activity against cholecystokinin type A receptor. It counts as functional.

For experiment [2], the target named is T4, Angiotensin-converting enzyme (Homo sapiens, UniProt P12821). As to the kind of experiment: Inhibition of Angiotensin I converting enzyme at 3.3 x 10 E -4M concentration.
In experiment [3] the target is T4, Angiotensin-converting enzyme. Description: Inhibition of Angiotensin I converting enzyme.

T4 sequence (P12821 whole entry): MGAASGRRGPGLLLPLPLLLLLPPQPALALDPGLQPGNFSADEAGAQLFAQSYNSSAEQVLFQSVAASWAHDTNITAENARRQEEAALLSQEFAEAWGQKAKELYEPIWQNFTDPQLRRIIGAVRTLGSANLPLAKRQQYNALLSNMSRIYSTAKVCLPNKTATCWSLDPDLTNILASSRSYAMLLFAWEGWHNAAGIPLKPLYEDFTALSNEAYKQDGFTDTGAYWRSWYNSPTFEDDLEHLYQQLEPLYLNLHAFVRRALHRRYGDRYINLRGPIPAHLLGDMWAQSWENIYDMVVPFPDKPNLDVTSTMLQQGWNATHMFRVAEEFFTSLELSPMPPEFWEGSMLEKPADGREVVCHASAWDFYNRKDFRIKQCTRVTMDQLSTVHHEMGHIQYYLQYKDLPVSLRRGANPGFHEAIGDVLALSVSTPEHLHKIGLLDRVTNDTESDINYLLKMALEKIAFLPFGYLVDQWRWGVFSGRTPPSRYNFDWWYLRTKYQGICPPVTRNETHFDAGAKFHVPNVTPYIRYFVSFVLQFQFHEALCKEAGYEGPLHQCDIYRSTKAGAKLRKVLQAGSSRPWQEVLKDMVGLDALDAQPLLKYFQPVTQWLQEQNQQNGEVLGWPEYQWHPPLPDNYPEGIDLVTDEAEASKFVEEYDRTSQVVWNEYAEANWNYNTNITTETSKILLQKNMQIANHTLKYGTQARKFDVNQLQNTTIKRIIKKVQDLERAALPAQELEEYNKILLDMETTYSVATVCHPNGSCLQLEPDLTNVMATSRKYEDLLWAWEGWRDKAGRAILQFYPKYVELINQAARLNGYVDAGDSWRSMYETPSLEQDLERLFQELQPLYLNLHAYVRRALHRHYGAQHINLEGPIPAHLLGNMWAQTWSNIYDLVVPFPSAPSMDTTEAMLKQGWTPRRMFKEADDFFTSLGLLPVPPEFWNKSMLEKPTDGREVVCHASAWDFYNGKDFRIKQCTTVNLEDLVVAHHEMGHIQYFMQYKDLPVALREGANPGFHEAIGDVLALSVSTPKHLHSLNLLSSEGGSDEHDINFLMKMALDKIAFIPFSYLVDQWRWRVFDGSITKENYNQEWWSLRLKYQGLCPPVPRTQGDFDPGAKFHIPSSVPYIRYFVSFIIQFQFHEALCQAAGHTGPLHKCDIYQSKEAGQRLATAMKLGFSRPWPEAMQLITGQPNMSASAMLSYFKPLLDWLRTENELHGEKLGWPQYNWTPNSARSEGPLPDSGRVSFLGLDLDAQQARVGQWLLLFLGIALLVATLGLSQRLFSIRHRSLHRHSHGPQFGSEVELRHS

As to `CC(NP(=O)(O)CCc1ccccc1)C(=O)N1CCCC1C(=O)O` (centres undefined), the IC50 (commonly the concentration that inhibits the measured activity by half) on Thermolysin was found to be 7 nM.

Consider `CC(C)(C)S(=O)(=O)C[C@@H](Cc1ccccc1)C(=O)NC1CSCCC[C@H](CN2CCOCC2)OC(=O)[C@H](O)[C@H](CC2CCCCC2)NC1=O` (some centres undefined), for which the IC50 at Renin worked out at 0.35 nM.

In experiment [1], `CC(C)C[C@@H]1N[C@H]2N(C1=O)c1ccccc1[C@@]2(O)C[C@@H]1NC(=O)c2ccccc2-n2c1nc1ccccc1c2=O` [ASPERLICIN] came in with an IC50 of 1400 nM.

As for `O=C(O)CCC(=O)N1CCCC1C(=O)O` (centres undefined), the inhibition (usually the relative decrease from the control value, in per cent) in experiment [2] is 43%.

Compound `O=C(CCC(=O)N1CCCC1C(=O)O)NO` (centres undefined) displayed an IC50 in experiment [3] of 50000 nM.

Regarding `CC(N[C@H](C)C(=O)N1CCC[C@H]1C(=O)O)C(=O)O` (some centres undefined), 90 nM corresponded to half-maximal inhibition in experiment [3] (IC50).

`C[C@@H](NCC(=O)O)C(=O)N1CCC[C@H]1C(=O)O` displayed a concentration for half-maximal inhibition (IC50) in experiment [3] of 2400 nM.

Consider `C[C@@H](CCC(=O)O)C(=O)N1CCCC1C(=O)O` (some centres undefined), for which, in experiment [3], inhibition was half-maximal at 4900 nM (IC50).

For `CC(CCC(=O)N1CCCC1C(=O)O)C(=O)O` (centres undefined), in experiment [3], 260000 nM corresponded to half-maximal inhibition (IC50).
